Source: patent US9783513B2, “STAT3 inhibitors and their anticancer use” (Ohio State Innovation Foundation, priority 2012, dated 2017)
Like-named read-outs stand apart in the source and are kept apart here.

Legend:
HUVEC spheroids = test: 3D in vitro angiogenesis (spheroid sprouting) assay; type: cell-based, human; conditions: 300 nM
Procedure: (§1) The Endothelial Tube Formation Assay (CBA200, Cell Biolabs Inc., San Diego, Calif., USA) was used in addition to the HUVEC proliferation assay. The ECM gel was thawed at 4° C. and mixed to homogeneity using cooled pipette tips. Cell culture plates (96-well) were bottom-coated with a thin layer of ECM gel (50 μl/well), which was left to polymerize at 37° C. for 60 min. HUVEC (2-3×10^4 cells) were stimulated with VEGF in 150 μl medium and added to each well on the solidified ECM gel. Culture medium was added to each well in the presence or absence of LY5. The plates were incubated at 37° C. for 12-18 hours and the endothelial tubes were quantified using a fluorescent microscope after staining with Calcein AM. Three microscope fields were selected at random and photographed. Tube forming ability was quantified by counting the total number of cell clusters and branches under a 4× objective and […] per well. The results are expressed as mean fold change of branching compared with the control groups. Each experiment was performed at least three times. The 3D in vitro angiogenesis assay was performed essentially as described by manufactures instructions (promo cell). […] The spheroids were photographed after 24 hours and sprout formation assessed as described.

[1] = Toxicity assessment in tumor-free mice; type: in vivo, mouse; conditions: C57BL/6 mice, IP 5 or 10 mg/kg daily, 7 days
Procedure: In order to provide preliminary data regarding potential toxicities from dosing of LY5, C57BL/6 tumor-free mice were treated with daily intraperitoneal (IP) injections of LY5 at 5 or 10 mg/kg for 7 days. […] Additionally, LY5 at a dose of 5 mg/kg via IP for 5 days inhibited growth of OS-1 tumor xenografts (90% tumor volume compared to baseline), while tumor in vehicle treated mice continued to grow (143% tumor volume compared to baseline).

HUVEC [2] = test: HUVEC tube formation assay; type: cell-based, human; conditions: 300 nM
Procedure: as §1

[3] = test system: IGF2, IGF-1 or LIF induced STAT3 phosphorylation; test: Western blot, IGF and LIF induced STAT3 phosphorylation; type: cell-based, human
[4] = test system: human sarcoma cell line RD2; test: Cell viability (MTT) assay, RD2; type: cell-based
Procedure: Human sarcoma cell lines (RD2, RH30, U2OS) were seeded in 96-well plates at a density of 3,000 cells per well. The cells were incubated at 37° C. for a period of 24 hours. Different concentrations of LY-5 (0.1-10 μM), LY-3 (0.1-20 μM), and LLL12 (0.1-10 μM) prepared as a 20 mM stock solution in sterile DMSO were added in triplicate to the plates in the presence of 10% FBS. 3-(4,5-Dimethylthiazolyl)-2, 5-diphenyltetrazoliumbromide (MTT) was added to evaluate cell viability. The absorbance was read at 595 nm. IC50 values were determined using SigmaPlot 9.0 Software (Systat Software, Inc., San Jose, Calif.).
Alternatively, cells were seeded in 96-well plates in triplicate at a density of 3,000 cells per well and given 24 hours to adhere. Cells were then treated with varying concentrations of the inhibitors in the presence of 10% FBS. The cells were incubated for 72 hours at 37° C. 25 μl of MTT dye (Sigma, #M5655) was added to each sample and incubated for 3.5 hours. After this, 100 μl of N,N-dimethylformamide (Sigma, #D4551) solubilization solution was added to each well. The absorbance at 450 nm was read the following day. Half-Maximal inhibitory concentrations (IC50) were determined using Sigma Plot 9.0 software (Systat Software Inc.).
Table 7 below lists specific compounds as well as experimentally determined STAT3 activity in a cell-based assay. The STAT3 activity was determined using the cell viability assays with human sarcoma cell lines (RD2, RH30, U2OS) as described above. The compound reference numbers (“Ref. No.”) in Table 7 correspond to the compound numbers used in Table 3.

HUVEC [5] = test: Matrigel invasion assay; type: cell-based, human; conditions: 300 nM
Procedure: The Matrigel invasion assays were carried out using Matrigel precoated inserts (BD Bioscience) following the manufacturer's instructions. Six hundred μl of M200 medium with or without VEGF (20 ng/ml, R&D Systems) was placed in the lower wells. Proliferating HUVECs (4×10^5 cells/ml) were pretreated with LY5 (300 nM) and 100 μl of cell suspension was loaded into each of the upper wells. The chambers were incubated for 18-20 hr at 37° C. After incubation, the inserts were removed, and the non-invading cells on the upper surface were removed with a cotton swab. The cells on the lower surface of the membrane were fixed in 100% methanol for 15 minutes, air-dried, and stained with Diff-Quik stain for 2 min. The cells were counted in six individual high-power fields for each membrane condition under a light microscope. Assays were performed in triplicate for each treatment group and the results were expressed as migrated cells per field for each condition.

cleaved caspase-3 = test: Western blot, cleaved caspase-3 (apoptosis); type: cell-based, human

## NS(=O)(=O)c1cccc2c1C(=O)C=C(Nc1cccnc1)C2=O [LY-5, 5,8-dioxo-6-(pyridin-3-ylamino)-5,8-dihydronaphthalene-1-sulfonamide]
HUVEC spheroids
  VEGF induced sprouting from preformed HUVEC spheroids: reduce HUVEC vascular sprout length
HUVEC spheroids; listed as LY5
  VEGF induced sprouting from preformed HUVEC spheroids: impaired angiogenic sprouting
[1]
  erythrocyte, leukocyte and platelet parameters: no differences
  organ weights as a percentage of body weight: did not vary significantly
[1]; n=2
  histologic evaluation of organs: no abnormalities
HUVEC [2]
  VEGF induced HUVEC tube formation: inhibits
[3]; DAOY, 0-5 μM, 2 h
  IGF-1 induced STAT3 phosphorylation at Y705: inhibits
  LIF induced STAT3 phosphorylation at Y705: inhibits
[3]; SJSA, 0-2.5 μM, 4 h
  IGF2 induced STAT3 phosphorylation: inhibits
[4]; Table 7, read-out: IC50 RD2
  IC50: 1390 nM
[4]; Table 8, read-out: IC50 values vs. cell lines, RD2
  IC50: 1390 nM
HUVEC [5]
  HUVECs invasion through Matrigel coated membranes: prevented
Cleaved caspase-3; EW8, 0.5-1.0 μM, 8 h
  apoptosis (cleaved caspase 3): induction of apoptosis
Cleaved caspase-3; HCSMC, HH and HSMM, 0-1 μM, 2 h
  apoptosis (cleaved caspase-3) in normal cells: but not in HCSMC, HH and HSMM cells
Cleaved caspase-3; RD2 and EW8, 0-1 μM, 2 h
  apoptosis (cleaved caspase-3): induces apoptosis
Cleaved caspase-3; UW288-1 and UW426, 0-1 μM, 2 h
  apoptosis (cleaved caspase-3): apoptosis
